Earlier results, collected in patent US20020022041A1, “Composition and process for treating pollution” (priority 2000, published 2002).

Conditions: non-toxic as defined by Section 313 Title III of SARA

SMILES | Toxicity
CCCCCCCCCCCCOP(=O)(O)O [Lauryl Phosphate Soln, Lauryl Phosphate] | Non toxic
CCCCOCCOCCO [2-, 2-(2-butoxyethoxy)ethanol] | Non toxic
CCCCCCCC/C=C\CCCCCCCC(=O)O [Oleic Acid] | Non toxic
